In DBAASP one finds MIC data, which are given here for five compounds.

Values after ≈ are worked out from the molar mass of the structure shown. Values joined by “and” are separate entries in the source; they are usually repeats but may differ in a detail not shown here. Equal entries are not always repeated.

Some test systems named below: Candida krusei ATCC 6258; Escherichia coli W3110; Listeria monocytogenes; Escherichia coli MG1655; Escherichia coli K88.
Assay in all cases: ≥ marks a high value that may be exact or a test limit, other limits are often not marked, values filed in µg/mL are converted to µM
The subject of assay [1] is Staphylococcus aureus ATCC 29213.
The test system of assay [2] is Enterococcus faecalis ATCC 29212.
Assay [3] deals with Serratia marcescens ATCC 14756.
Assay [4] relates to Pseudomonas aeruginosa ATCC 27312.
The test system of assay [5] is Mannheimia haemolytica 82-25.
Assay [6] has as its system Klebsiella pneumoniae ATCC 10031.
For assay [7], the system named is Escherichia coli ATCC 12795.
Assay [8] has as its system Klebsiella pneumoniae ATCC BAA-1705.
Assay [9] has as its system Escherichia coli ATCC 25922.
In assay [10] the test system is Staphylococcus aureus ATCC 6538P.
In assay [11] the test system is Staphylococcus aureus WKZ2.
The subject of assay [12] is Pseudomonas aeruginosa RP73.
Assay [13] concerns Salmonella enterica subsp. enterica serovar Typhimurium ATCC 14028.
For assay [14], the system named is Pseudomonas aeruginosa PAO1.
In assay [15] the test system is Escherichia coli ATCC 35218.
For assay [16], the system named is Salmonella enterica subsp. enterica serovar Enteritidis 706 RIVM.
Assay [17] relates to Escherichia coli MG1655 ΔrecA.
Assay [18] relates to Klebsiella aerogenes ATCC 13048.
Assay [19] concerns Salmonella typhimurium CMCC 50115.
The subject of assay [20] is Escherichia coli ATCC 25922 ΔsbmA.
Assay [21] concerns Klebsiella pneumoniae CMCC 46117.
The test system of assay [22] is Shigella dysenteriae CMCC 51252.
Assay [23] has as its system Shigella flexneri CMCC 51572.
Assay [24] has as its system Staphylococcus aureus ATCC 25923.
Assay [25] relates to Salmonella enterica ATCC H9812.
For assay [26], the system named is Bacillus subtilis ATCC 63501.
The test system of assay [27] is Shigella flexneri ATCC 12022.

As a reminder, the MIC is the lowest concentration that inhibits growth of the organism. Low values mean greater potency, high ones weaker potency. On to `N[C@@H](CC(=O)O)C(=O)N[C@@H](CC(=O)O)C(=O)N[C@@H](CC(=O)O)C(=O)N[C@@H](CC(=O)O)C(=O)N[C@@H](CC(=O)O)C(=O)N[C@@H](CC(=O)O)C(=O)N[C@@H](CC(=O)O)C(=O)O` [DDDDDDD], for which the MIC was 940 µM (≈ 774 µg/mL) in assay [1]; 1160 µM (≈ 955 µg/mL) in assay [2]; at least 1500 µM in assay [3]; at least 1500 µM in assay [4]; at least 80 µM in assay [5]; at least 800 µM in assay [6]. In addition, the MIC in assay [7] is at least 570 µM; against Candida krusei ATCC 6258, at least 3.19 mM.
With `CC[C@H](C)[C@H](N)C(=O)N[C@@H](Cc1c[nH]c2ccccc12)C(=O)N[C@@H](Cc1c[nH]c2ccccc12)C(=O)N[C@@H](C)C(=O)N[C@@H](CCCCN)C(=O)N[C@@H](Cc1c[nH]c2ccccc12)C(=O)NCC(=O)N[C@@H](CC(C)C)C(=O)N[C@@H](CCCCN)C(=O)N[C@@H](CC(C)C)C(=O)N[C@@H](CC(C)C)C(=O)N[C@@H](CC(=O)O)C(=O)N[C@@H](Cc1ccc(O)cc1)C(=O)N[C@@H](CCCN=C(N)N)C(=O)N[C@@H](CCCN=C(N)N)C(=O)N[C@H](C(=O)N[C@@H](Cc1c[nH]c2ccccc12)C(=O)O)[C@@H](C)CC` [IWWAKWGLKLLDYRRIW], the MIC was 8 µM (≈ 18.4 µg/mL) against Escherichia coli W3110 and at least 128 µM in assay [8].
As for `CC(C)C[C@H](NC(=O)[C@@H](NC(=O)[C@@H]1CCCN1C(=O)[C@H](C)NC(=O)[C@H](CCCCN)NC(=O)[C@H](Cc1c[nH]c2ccccc12)NC(=O)[C@H](CCC(N)=O)NC(=O)[C@@H]1CCCN1C(=O)[C@H](Cc1ccccc1)NC(=O)[C@H](Cc1ccc(O)cc1)NC(=O)[C@H](CCCCN)NC(=O)[C@H](CCCN=C(N)N)NC(=O)[C@H](C)NC(=O)[C@@H]1CCCN1C(=O)[C@H](CC(N)=O)NC(=O)[C@H](CC(C)C)NC(=O)[C@H](CC(N)=O)NC(=O)[C@H](Cc1cnc[nH]1)NC(=O)[C@H](CCCCN)NC(=O)[C@H](CCCCN)NC(=O)[C@H](CC(C)C)NC(=O)[C@H](Cc1ccccc1)NC(=O)[C@@H]1CCCN1)[C@@H](C)O)C(=O)O` [PFLKKHNLNPARKYFPQWKAPTL], the MIC in assay [9] was over 50 µM; with Listeria monocytogenes, at least 50 µM; in assay [2] it was over 50 µM; in assay [10] it was 3.12 µM (≈ 8.72 µg/mL); in assay [11], at least 50 µM; in assay [12], 12.5 µM (≈ 34.9 µg/mL). Moreover, the MIC in assay [13] was over 50 µM; in [14] it was 25 µM (≈ 69.9 µg/mL); in assay [15] it was at least 50 µM; in [16], at least 50 µM.
Turning to `CC(C)C[C@H](NC(=O)CNC(=O)[C@H](C)NC(=O)[C@H](CCCN=C(N)N)NC(=O)[C@H](Cc1cnc[nH]1)NC(=O)[C@@H](NC(=O)[C@@H](N)CCCN=C(N)N)[C@@H](C)O)C(=O)N[C@@H](CCC(N)=O)C(=O)N[C@@H](Cc1ccccc1)C(=O)N1CCC[C@H]1C(=O)N[C@H](C(=O)NCC(=O)N[C@@H](CCCN=C(N)N)C(=O)N[C@H](C(=O)N[C@@H](Cc1cnc[nH]1)C(=O)N[C@@H](CCCN=C(N)N)C(=O)N[C@@H](CC(C)C)C(=O)N[C@@H](CC(C)C)C(=O)N[C@@H](CCCN=C(N)N)C(=O)N[C@@H](CCCCN)C(N)=O)C(C)C)C(C)C` [RTHRAGLQFPVGRVHRLLRK], the values for the MIC (in assay [17]; with Escherichia coli MG1655; in assay [18]) were 16 µM (≈ 38.4 µg/mL), at least 32 µM and at least 64 µM, respectively.
Regarding `CC[C@H](C)[C@H](NC(=O)[C@@H]1CCCN1C(=O)[C@H](CCCN=C(N)N)NC(=O)[C@@H]1CCCN1C(=O)[C@H](CCCN=C(N)N)NC(=O)[C@@H]1CCCN1C(=O)[C@H](CC(C)C)NC(=O)[C@H](Cc1ccc(O)cc1)NC(=O)[C@@H]1CCCN1C(=O)[C@@H]1CCCN1C(=O)[C@H](CCCCN)NC(=O)[C@H](CC(=O)O)NC(=O)[C@@H](N)C(C)C)C(=O)N[C@@H](CCCN=C(N)N)C(=O)N[C@@H](CCCN=C(N)N)C(=O)N1CCC[C@H]1C(=O)NCC(=O)NCC(=O)N[C@@H](CCCN=C(N)N)C(N)=O` [VDKPPYLPRPRPIRRPGGR], the MIC is 1 µM and 2 µM in assay [19]; at least 256 µM in assay [20]; at least 256 µM in assay [21]; 2 µM (≈ 4.45 µg/mL) against Escherichia coli K88; over 512 µM in assay [2]; at least 256 µM in [6]. The MIC in assay [22] was 4 µM and 2 µM; in [23], 2 µM (≈ 4.45 µg/mL); in assay [24], over 512 µM; in assay [25], 2 µM (≈ 4.45 µg/mL); in assay [26], at least 512 µM; in [27] it was 1 µM (≈ 2.23 µg/mL).
